{
  "source": "paper PMC4534804",
  "about": "“Pharmacokinetics of a multicomponent herbal preparation in healthy Chinese and African volunteers” (Scientific Reports, 2015)",
  "key": {"[1]": {"test": "Identification of prototype compounds and metabolites in human plasma after oral K-601 (UPLC-QTOF/MS, EIC peak height)", "assay_type": "in vivo", "protocol": "(§1) Chromatographic separation was carried out at 25 °C on a Zorbax RRHD Eclipse Plus C18 column (2.1 × 50 mm, 1.8 μm). The mobile phase consisted of 0.1% formic acid solution (A) and ACN (B) using a gradient elution of 0–5% B at 0–6 min, 5–8% B at 6–15 min, 8–15% B at 15–20 min, 15–20% B at 20–30 min, 20–30% at 30–35 min, 30–35% at 35–45 min, 35–40% at 45–60 min. The flow rate was kept at 0.2 mL/min, and the sample volume injected was set at 5 μL. […] The parameters of operation were as follows: drying gas N2 flow rate, 10.0 L/min; temperature, 330 °C; nebulizer, 35 psig; capillary, 3000 V; skimmer, 60 V; OCT RFV, 250 V. Each sample was analyzed in both the positive and negative modes due to the selective sensitivities to different components of the formulation-providing better information for molecular formulae and structural identification. Mass spectra were recorded across the range m/z 100–1000 with accurate mass measurements.\nA total of six healthy male volunteers, ages ranging from 22–47 years took part in this study. Three of whom are Africans and three Chinese. […] None was also on any medication.\nBlood samples were withdrawn from subjects at the following time intervals, 0 hour (before taking medication and breakfast), 1, 2, 4, and 6 hours after taking the medication. These blood samples were taken by a qualified phlebotomist in the hospital. Each volunteer took 40 mL of same batch of the medication as a single dose. […] Details of subjects in the pharmacokinetic studies are provided (Table 5).\n(§2) All blood samples taken at each time were immediately centrifuged at 13000 rpm for 10 min, and the plasma separated and stored at −80 °C until analysis. Plasma samples were thawed at 37 °C before solid-phase extraction (SPE) treatment for UPLC-QTOF/MS analysis. The sample treatment procedure is schematically presented in Supplementary Figure S3."}, "[2]": {"test": "Pharmacokinetics of major prototype compounds in healthy Chinese and African volunteers after single oral K-601 (EIC peak area vs time)", "assay_type": "in vivo, human", "conditions": "single oral 40 mL K-601; for Tmax: male, human, plasma, po, 40 mL", "protocol": "A total of six healthy male volunteers, ages ranging from 22–47 years took part in this study. Three of whom are Africans and three Chinese. All volunteers avoided the intake of alcohol/alcoholic beverages, coffee/beverages containing coffee for at least 12 hours prior to the study. None was also on any medication. All volunteers also fasted for 12 hours prior to the study and throughout the study period.\nBlood samples were withdrawn from subjects at the following time intervals, 0 hour (before taking medication and breakfast), 1, 2, 4, and 6 hours after taking the medication. These blood samples were taken by a qualified phlebotomist in the hospital. Each volunteer took 40 mL of same batch of the medication as a single dose. This study was approved by the Ethics Committee of the First Affiliated Hospital of Nanjing Medical University (2013-SRFA-078) and conducted under the guidelines of the Helsinki Declaration and the International Conference on Harmonization-Good Clinical Practices (ICH-GCP). Details of subjects in the pharmacokinetic studies are provided (Table 5).\nas §2\nPharmacokinetic analyses were done using the extracted ion chromatograms (EIC) of the most abundant compounds. The peak areas of derived from the EIC were plotted against time (h)."}, "human intestinal flora": {"system": "human intestinal flora", "test": "Biotransformation and metabolism of K-601 by human fecal flora (anaerobic incubation)", "assay_type": "in vitro ADME", "protocol": "as §1"}, "[3]": {"conditions": "human plasma after single oral 40 mL K-601, prototype compounds"}, "[4]": {"conditions": "human plasma after administration of K-601, metabolites"}},
  "data": [
    {"compound": "O=c1c(O[C@@H]2O[C@H](CO)[C@H](O)[C@H](O)[C@H]2O)c(-c2ccc(O)c(O)c2)oc2cc(O)cc(O)c12", "note": "[P10, Hyperoside]", "values": [
      {"measurement": "Abund. (peak height in the EIC) of prototype compound in plasma", "setting": "[1]; [3]", "result": "0.05 ×10^4"}
    ]},
    {"compound": "O=C(O)c1cc(O)c2c(c1)C(=O)c1cccc(O)c1C2=O", "note": "[P14, Rhein]", "values": [
      {"measurement": "Abund. (peak height in the EIC) of prototype compound in plasma", "setting": "[1]; [3]", "result": "0.62 ×10^4"}
    ]},
    {"compound": "Cc1cc(O)c2c(c1)C(=O)c1cc(O)cc(O)c1C2=O", "note": "[P12, Emodin]", "values": [
      {"measurement": "Abund. (peak height in the EIC) of prototype compound in plasma", "setting": "[1]; [3]", "result": "0.04 ×10^4"}
    ]},
    {"compound": "COc1ccc2cc3[n+](cc2c1OC)CCc1cc2c(cc1-3)OCO2", "note": "[P5, Berberine]", "values": [
      {"measurement": "Abund. (peak height in the EIC) of prototype compound in plasma", "setting": "[1]; [3]", "result": "50.35 ×10^4"},
      {"measurement": "Peak abundance (class) of prototype compound in plasma", "setting": "[1]; [3]", "result": "High (> 1.00 × 10^4, defined as major constituent, thus high-level)"},
      {"measurement": "Tmax", "setting": "[2]; African volunteers", "result": 4, "unit": "h"},
      {"measurement": "Tmax", "setting": "[2]; Chinese volunteers", "result": 1, "unit": "h"},
      {"measurement": "AUC comparison African vs Chinese volunteers (in words)", "setting": "[2]", "result": "higher"}
    ]},
    {"compound": "C=C[C@H]1[C@H](O[C@@H]2O[C@H](CO)[C@@H](O)[C@H](O)[C@H]2O)OC=C(C(=O)O)[C@H]1CC(=O)O", "note": "[P6, Secologanoside]", "values": [
      {"measurement": "Abund. (peak height in the EIC) of prototype compound in plasma", "setting": "[1]; in vivo, po", "result": "0.02 ×10^4"}
    ]},
    {"compound": "O=C(/C=C/c1ccc(O)c(O)c1)O[C@@H]1C[C@](O)(C(=O)O)C[C@@H](O)[C@H]1O", "note": "[P7, Chlorogenic acid]", "values": [
      {"measurement": "Abund. (peak height in the EIC) of prototype compound in plasma", "setting": "[1]; [3]", "result": "0.03 ×10^4"}
    ]},
    {"compound": "O=C1c2cccc(O)c2C(=O)c2c(O)cc(O)cc21", "note": "[M10]", "values": [
      {"measurement": "Abund. (peak height in the EIC) of metabolite in plasma", "setting": "[1]; [4]", "result": "0.02 ×10^4"},
      {"measurement": "Peak abundance (class) of metabolite in plasma", "setting": "[1]; [4]", "result": "Low (<0.10 × 10^4 as trace constituent, thus low-level)"}
    ]},
    {"compound": "4-O-caffeoylquinic acid [P8]", "values": [
      {"measurement": "Abund. (peak height in the EIC) of prototype compound in plasma", "setting": "[1]; in vivo, po", "result": "0.04 ×10^4"}
    ]},
    {"compound": "COc1cc2c(cc1O)CC[n+]1cc3c(OC)c(OC)ccc3cc1-2", "note": "[P3, Jatrorrhizine]", "values": [
      {"measurement": "Abund. (peak height in the EIC) of prototype compound in plasma", "setting": "[1]; male, human, in vivo, po", "result": "3.53 ×10^4"},
      {"measurement": "Tmax", "setting": "[2]; African volunteers", "result": 4, "unit": "h"},
      {"measurement": "Tmax", "setting": "[2]; Chinese volunteers", "result": 1, "unit": "h"},
      {"measurement": "AUC comparison African vs Chinese volunteers (in words)", "setting": "[2]", "result": "higher"}
    ]},
    {"compound": "Caffeoyl-CH2-O-quinic acid [P9]", "values": [
      {"measurement": "Abund. (peak height in the EIC) of prototype compound in plasma", "setting": "[1]; [3]", "result": "0.03 ×10^4"}
    ]},
    {"compound": "Cc1cc(O)c2c(c1)C(=O)c1cc(C(=O)O)cc(O)c1C2=O", "note": "[P15, 6-Methyl-rhein]", "values": [
      {"measurement": "Abund. (peak height in the EIC) of prototype compound in plasma", "setting": "[1]; in vivo, po", "result": "0.06 ×10^4"}
    ]},
    {"compound": "COc1c(O[C@@H]2O[C@H](C(=O)O)[C@@H](O)[C@H](O)[C@H]2O)cc(O)c2c(=O)cc(-c3ccccc3)oc12", "note": "[P13, Wogonoside]", "values": [
      {"measurement": "Abund. (peak height in the EIC) of prototype compound in plasma", "setting": "[1]; [3]", "result": "0.42 ×10^4"}
    ]},
    {"compound": "COc1cc2c(cc1OC)[C@@H]1Cc3ccc(OC)c(OC)c3CN1CC2", "note": "[P2, Tetrahydropalmatine]", "values": [
      {"measurement": "Abund. (peak height in the EIC) of prototype compound in plasma", "setting": "[1]; [3]", "result": "0.03 ×10^4"}
    ]},
    {"compound": "COc1cc2c(cc1OC)-c1cc3ccc(OC)c(OC)c3c[n+]1CC2", "note": "[P4, Palmatine]", "values": [
      {"measurement": "Abund. (peak height in the EIC) of prototype compound in plasma", "setting": "[1]; [3]", "result": "12.63 ×10^4"},
      {"measurement": "Peak abundance (class) of prototype compound in plasma", "setting": "[1]; [3]", "result": "High (> 1.00 × 10^4, defined as major constituent, thus high-level)"},
      {"measurement": "Tmax", "setting": "[2]; African volunteers", "result": 4, "unit": "h"},
      {"measurement": "Tmax", "setting": "[2]; Chinese volunteers", "result": 1, "unit": "h"},
      {"measurement": "AUC comparison African vs Chinese volunteers (in words)", "setting": "[2]", "result": "higher"}
    ]},
    {"compound": "COc1ccc2c(c1O)-c1c(O)c(OC)cc3c1[C@H](C2)[N+](C)(C)CC3", "note": "[P1, Magnoflorine]", "values": [
      {"measurement": "Abund. (peak height in the EIC) of prototype compound in plasma", "setting": "[1]; male, human, in vivo, po", "result": "6.52 ×10^4"},
      {"measurement": "AUC comparison African vs Chinese volunteers (in words)", "setting": "[2]", "result": "better in the Chinese volunteers"}
    ]},
    {"compound": "O=C(O)c1cc(O)c(O)c(O)c1O", "note": "[T1]", "values": [
      {"measurement": "Abund. (peak height in the EIC) of metabolite from human intestinal transformation", "setting": "human intestinal flora", "result": "0.05 ×10^4"}
    ]}
  ]
}
